Results as given in the NIST ThermoML archive (doi:10.1021/je800110r).

Conditions: 293.15 K, Liquid, Vibrating tube method

CCCCCCCCCC [decane]
Conditions	mass density [kg/m3]
28146 kPa	749.4
28177 kPa	749.5
28205 kPa	749.5
28236 kPa	749.5
28261 kPa	749.4
28289 kPa	749.5
28321 kPa	749.5
28349 kPa	749.5
28373 kPa	749.5
28405 kPa	749.5
28425 kPa	749.6
28454 kPa	749.5
28482 kPa	749.6
28507 kPa	749.6
28527 kPa	749.6
28552 kPa	749.5
28597 kPa	749.7
28622 kPa	749.7
28643 kPa	749.6
28663 kPa	749.8
28687 kPa	749.7
28712 kPa	749.7
28749 kPa	749.8
28770 kPa	749.7
28807 kPa	749.8
28836 kPa	749.7
28865 kPa	749.9
28886 kPa	749.9
28919 kPa	749.9
28945 kPa	749.9
28974 kPa	749.9
28999 kPa	749.9
29029 kPa	749.9
29050 kPa	749.9
29084 kPa	749.9
29114 kPa	750
29149 kPa	749.9
29175 kPa	750
29213 kPa	750
29232 kPa	750.1
29263 kPa	750.1
29295 kPa	750.1
29326 kPa	750.1
29350 kPa	750.1
29376 kPa	750.2
29396 kPa	750.1
29419 kPa	750.1
29439 kPa	750.2
29470 kPa	750.3
29494 kPa	750.2
29518 kPa	750.3
29549 kPa	750.2
29574 kPa	750.3
29600 kPa	750.3
29620 kPa	750.3
29645 kPa	750.3
29668 kPa	750.3
29701 kPa	750.3
29724 kPa	750.4
29760 kPa	750.4
29780 kPa	750.5
29804 kPa	750.3
29828 kPa	750.5
29852 kPa	750.4
29877 kPa	750.4
29904 kPa	750.4
29931 kPa	750.5
29960 kPa	750.4
29996 kPa	750.5
30021 kPa	750.6
30041 kPa	750.6
30078 kPa	750.6
30098 kPa	750.5
30123 kPa	750.6
30144 kPa	750.7
30168 kPa	750.7
30194 kPa	750.7
30219 kPa	750.7
30248 kPa	750.7
30273 kPa	750.8
30294 kPa	750.7
30328 kPa	750.8
30358 kPa	750.8
30393 kPa	750.9
30419 kPa	750.8
30455 kPa	750.9
30479 kPa	750.8
30506 kPa	750.8
30546 kPa	750.8
30560 kPa	750.8
30576 kPa	750.9
30591 kPa	750.9
30604 kPa	751
30620 kPa	750.9
30641 kPa	750.9
30659 kPa	750.9
30682 kPa	751
30703 kPa	751.1
30721 kPa	751
30739 kPa	751
30752 kPa	751
30771 kPa	751
30795 kPa	751
30813 kPa	751.1
30826 kPa	751.1
30845 kPa	751.1
30866 kPa	751
30887 kPa	751.1
30908 kPa	751.1
30924 kPa	751
30942 kPa	751.1
30955 kPa	751.1
30977 kPa	751.1
30995 kPa	751.1
31014 kPa	751.1
31028 kPa	751.2
31044 kPa	751.1
31057 kPa	751.1
31074 kPa	751.2
31090 kPa	751.2
31106 kPa	751.2
31130 kPa	751.3
31147 kPa	751.3
31168 kPa	751.3
31188 kPa	751.3
31207 kPa	751.3
31224 kPa	751.3
31243 kPa	751.2
31260 kPa	751.3
31279 kPa	751.3
31295 kPa	751.4
31314 kPa	751.3
31339 kPa	751.3
31356 kPa	751.4
31375 kPa	751.4
31391 kPa	751.3
31412 kPa	751.3
31425 kPa	751.4
31441 kPa	751.4
31455 kPa	751.5
31472 kPa	751.3
31489 kPa	751.4
31503 kPa	751.5
31520 kPa	751.5
31542 kPa	751.4
31564 kPa	751.5
31581 kPa	751.5
31601 kPa	751.5
31615 kPa	751.4
31636 kPa	751.4
31651 kPa	751.6
31670 kPa	751.5
31687 kPa	751.5
31710 kPa	751.7
31724 kPa	751.8
31738 kPa	751.5
31755 kPa	751.5
31774 kPa	751.6
31797 kPa	751.5
31811 kPa	751.6
31831 kPa	751.7
31847 kPa	751.7
31864 kPa	751.7
31885 kPa	751.7
31907 kPa	751.7
31928 kPa	751.6
31944 kPa	751.6
31965 kPa	751.9
31989 kPa	751.7
32005 kPa	751.8
32027 kPa	751.7
32043 kPa	751.7
32061 kPa	751.8
32081 kPa	751.9
32100 kPa	751.8
32124 kPa	751.9
32148 kPa	751.9
32167 kPa	751.8
32191 kPa	751.8
32207 kPa	751.9
32230 kPa	751.9
32246 kPa	751.8
32266 kPa	751.9
32282 kPa	751.8
32299 kPa	751.9
32324 kPa	752
32345 kPa	752
32362 kPa	751.9
32379 kPa	751.9
32400 kPa	751.9
32420 kPa	752
32445 kPa	752
32462 kPa	751.9
32478 kPa	752
32498 kPa	752
32520 kPa	752.1
32537 kPa	751.9
32555 kPa	752.1
32572 kPa	752.1
32592 kPa	752.2
32612 kPa	752
32637 kPa	752.2
32657 kPa	752.1
32673 kPa	752.1
32690 kPa	752.1
32716 kPa	752.1
32733 kPa	752.2
32750 kPa	752.1
32770 kPa	752.1
32790 kPa	752.2
32808 kPa	752.2
32825 kPa	752.3
32848 kPa	752.2
32865 kPa	752.4
32888 kPa	752.3
32911 kPa	752.2
32930 kPa	752.4
32953 kPa	752.4
32972 kPa	752.4
32993 kPa	752.3
33014 kPa	752.3
33038 kPa	752.3
33061 kPa	752.4
33080 kPa	752.4
33103 kPa	752.3
33132 kPa	752.4
33150 kPa	752.5
33180 kPa	752.4
33203 kPa	752.4
33218 kPa	752.4
33239 kPa	752.5
33260 kPa	752.3
33279 kPa	752.4
33304 kPa	752.5
33334 kPa	752.5
33349 kPa	752.4
33373 kPa	752.6
33397 kPa	752.7
33416 kPa	752.7
33440 kPa	752.5
33465 kPa	752.6
33484 kPa	752.5
33514 kPa	752.6
33536 kPa	752.6
33555 kPa	752.6
33576 kPa	752.6
33606 kPa	752.7
33631 kPa	752.8
33649 kPa	752.6
33667 kPa	752.8
33692 kPa	752.7
33710 kPa	752.8
33738 kPa	752.8
33760 kPa	752.7
33791 kPa	752.9
33807 kPa	752.8
33829 kPa	752.8
33848 kPa	752.8
33896 kPa	752.8
33919 kPa	752.9
33934 kPa	752.9
33961 kPa	753
33976 kPa	752.9
33992 kPa	752.9
34010 kPa	752.9
34029 kPa	752.9
34050 kPa	753
34069 kPa	753
34090 kPa	752.9
34112 kPa	753
34129 kPa	753.1
34148 kPa	753
34176 kPa	753
34198 kPa	752.9
